Test results reported in article PMC11396129, “Oxindole–benzothiazole hybrids as CDK2 inhibitors and anticancer agents: design, synthesis and biological evaluation” (BMC Chemistry, 2024).

Legend:
CDK1 = CDK1 (Homo sapiens, UniProt P06493); assay: Kinase inhibitory activity on CDK1; format: biochemical; conditions: mean of two independent experiments ± SD
[1] = test system: DU145 prostate cancer cell line; assay: Cell cycle analysis (PI flow cytometry); format: cell-based, human; conditions: DU145, 9o at its GI50 concentration, 48h
Method: Concurrently, there is a decline in the % of cells in the G2 phase from 22.20% in control cells to 20.94% in 9o treated cells.
(§1) DU145 cancer cell line derived from prostate cancer was treated with the oxindole–benzothiazole conjugate 9o at its GI50. This was followed by treatment of cells according to the reported procedure and the percentage of cells in each stage of the cell cycle was identified and the percentage of cells in the apoptotic and necrotic stages were detected (for further details see additional file 1: analysis of cell cycle distribution; apoptosis assay).
(§2) 6. Analysis of cell cycle distribution
(§3) DU-145: Prostate cancer was obtained from Nawah Scientific Inc., (Mokatam, Cairo, Egypt).
Cells were maintained in DMEM media supplemented with […] of streptomycin, 100 units/mL of penicillin and 10% of heat-inactivated fetal bovine serum in humidified, 5% (v/v) CO2 atmosphere at 37 °C. After treatment with 9o for 48h, cells (10^5 cells) are collected by trypsinization and washed twice with ice-cold PBS (pH 7.4). Cells are re-suspended in two milliliters of 60% ice-cold ethanol and incubated at 4 °C for 1h for fixation. Fixed cells are washed twice again with PBS (pH 7.4) and re-suspended in 1 mL of PBS containing 50 μg/mL RNAase A and 10 μg/mL propidium iodide (PI). After 20 min of incubation in dark at 37 °C, cells are analyzed for DNA contents using flow cytometry analysis using FL2 (λex/em 535/617 nm) signal detector (ACEA Novocyte™ flowcytometer, ACEA Biosciences Inc., San Diego, CA, USA). For each sample, 12,000 events are acquired. […]

FGFR-1 = FGFR-1 (Homo sapiens, UniProt P11362); assay: Kinase inhibitory activity on FGFR-1; format: biochemical; conditions: mean of two independent experiments ± SD
Sequence of FGFR-1 (P11362 22-822, species assumed): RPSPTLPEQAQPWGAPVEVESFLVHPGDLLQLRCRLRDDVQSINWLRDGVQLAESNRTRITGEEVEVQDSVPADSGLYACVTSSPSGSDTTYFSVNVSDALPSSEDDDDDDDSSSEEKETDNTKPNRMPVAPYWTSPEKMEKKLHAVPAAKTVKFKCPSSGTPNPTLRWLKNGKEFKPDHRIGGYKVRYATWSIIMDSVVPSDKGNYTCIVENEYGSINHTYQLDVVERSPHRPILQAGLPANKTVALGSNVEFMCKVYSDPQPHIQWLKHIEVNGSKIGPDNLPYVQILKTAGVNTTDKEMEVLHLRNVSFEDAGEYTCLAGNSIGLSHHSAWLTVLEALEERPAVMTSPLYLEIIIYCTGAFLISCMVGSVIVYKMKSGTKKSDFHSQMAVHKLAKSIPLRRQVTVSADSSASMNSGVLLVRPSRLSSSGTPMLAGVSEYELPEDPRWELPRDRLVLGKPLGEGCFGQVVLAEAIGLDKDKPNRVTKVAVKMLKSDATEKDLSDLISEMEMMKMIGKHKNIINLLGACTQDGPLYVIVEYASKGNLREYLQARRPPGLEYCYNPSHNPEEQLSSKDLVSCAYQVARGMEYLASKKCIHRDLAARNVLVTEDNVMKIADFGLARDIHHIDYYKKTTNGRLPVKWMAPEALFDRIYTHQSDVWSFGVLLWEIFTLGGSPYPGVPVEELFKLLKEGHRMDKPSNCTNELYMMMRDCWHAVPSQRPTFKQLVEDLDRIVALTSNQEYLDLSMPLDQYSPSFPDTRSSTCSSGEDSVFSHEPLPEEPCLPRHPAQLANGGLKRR

[2] = test system: DU145 prostate cancer cell line; assay: Apoptosis assay (Annexin V-FITC/PI flow cytometry); format: cell-based, human; conditions: DU145, 9o at its GI50 concentration, 48h
Method: as §1, §2, §3
Cells were maintained in DMEM media supplemented with […] of streptomycin, 100 units/mL of penicillin and 10% of heat-inactivated fetal bovine serum in humidified, 5% (v/v) […]
CO2 atmosphere at 37 °C. […]
Apoptosis and necrosis cell populations are determined using Annexin V-FITC apoptosis detection kit (Abcam Inc., Cambridge Science Park, Cambridge, UK) coupled with 2 fluorescent channels flowcytometry. After treatment with test compounds for 48h, cells (10^5 cells) are collected by trypsinization and washed twice with ice-cold PBS (pH 7.4). Then, cells are incubated in dark with 0.5 ml of Annexin V-FITC/PI solution for 30 min in dark at room temperature according to manufacturer protocol. After staining, cells are injected via ACEA Novocyte™ flowcytometer (ACEA Biosciences Inc., San Diego, CA, USA) and analysed for FITC and PI fluorescent signals using FL1 and FL2 signal detector, respectively […]
events are acquired and positive FITC and/or PI cells are quantified by quadrant analysis and […]

Sequence of CDK1 (P06493 whole entry, species assumed): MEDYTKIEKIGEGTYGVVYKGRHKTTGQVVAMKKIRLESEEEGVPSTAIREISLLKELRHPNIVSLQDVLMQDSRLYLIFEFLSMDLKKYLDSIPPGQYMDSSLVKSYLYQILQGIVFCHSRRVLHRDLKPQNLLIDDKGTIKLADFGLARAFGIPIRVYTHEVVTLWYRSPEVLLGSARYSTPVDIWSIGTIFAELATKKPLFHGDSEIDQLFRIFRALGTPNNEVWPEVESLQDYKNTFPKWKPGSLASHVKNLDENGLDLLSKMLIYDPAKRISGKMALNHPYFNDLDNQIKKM
Sequence of CDK1 (P14635 whole entry partner, species assumed): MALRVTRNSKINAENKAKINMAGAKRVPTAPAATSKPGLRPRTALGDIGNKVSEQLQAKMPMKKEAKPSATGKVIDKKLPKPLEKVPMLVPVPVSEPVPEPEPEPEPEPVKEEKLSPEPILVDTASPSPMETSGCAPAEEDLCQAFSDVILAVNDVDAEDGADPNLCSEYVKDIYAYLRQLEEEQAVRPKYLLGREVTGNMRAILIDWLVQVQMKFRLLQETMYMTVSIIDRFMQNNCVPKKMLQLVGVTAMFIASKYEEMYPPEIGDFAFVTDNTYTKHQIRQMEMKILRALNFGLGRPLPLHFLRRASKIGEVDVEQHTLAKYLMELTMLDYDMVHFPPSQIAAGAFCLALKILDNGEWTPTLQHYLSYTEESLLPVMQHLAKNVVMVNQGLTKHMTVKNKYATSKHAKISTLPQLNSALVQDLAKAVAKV

SMILES: COc1ccc2c(c1)C(=NNC(=O)COc1cc(-c3nc4ccccc4s3)ccc1OC)C(=O)N2 [Compound 9o, 2-(5-(Benzo[d]thiazol-2-yl)-2-methoxyphenoxy)-N′-(5-methoxy-2-oxoindolin-3-ylidene)acetohydrazide]
- IC50 (CDK1): 1.19 ± 0.1 µM
- %G0/G1 [1]: 61.40%
- %G2/M [1]: 20.94%
- %S [1]: 17.66%
- %Sub-G1 [1]: 0.41%
- IC50 (FGFR-1): > 10 µM
- % early apoptotic cells (Q2–4) [2]: 0.28%
- % of cells in the late apoptotic stage (Q2–2) [2]: 5.02%
- % of cells in the necrotic stage (Q2–1) [2]: 2.63%
- % viable cells (Q2–3) [2]: 92.07%
